Test results from PubChem BioAssay AID242 (DTP/NCI, 2004).
Where “and” joins values, the source holds several entries; their conditions need not be identical. Equal entries are not always repeated. Inconclusive results and toxic doses are left out. The calls were made as follows: active = survival T/C of 150% or more; inactive = T/C below 125% in these data.

Test system: BDF1 mice, Lymphoma 8 ip, survival T/C
Assay: NCI In Vivo Anticancer Drug Screen. Data for tumor model Lymphoma 8 (intraperitoneal) in B6D2F1 (BDF1) mice
Conditions: higher = longer survival
Description: The antitumor activity of compounds was measured in mice bearing transplantable tumors. Survival or tumor size were measured and the results are expressed as the measurement made in the treated group (T) divided by the measurement made in the vehicle treated control group (C). The tumor model used in this assay is Lymphoma 8 (intraperitoneal) in B6D2F1 (BDF1) mice

[1] = endpoint: survival time, mean or median, dose: 5.0 mg/kg/injection, schedule: Q01DX010 (ip), vehicle: saline
[2] = endpoint: survival time, mean or median, dose: 20.0 mg/kg/injection, schedule: Q01DX010 (ip), vehicle: saline
[3] = endpoint: survival time, mean or median, dose: 62.5 mg/kg/injection, schedule: Q01DX010 (ip), vehicle: saline
[4] = endpoint: survival time, mean or median, dose: 125.0 mg/kg/injection, schedule: Q01DX010 (ip), vehicle: saline
[5] = endpoint: survival time, mean or median, dose: 40.0 mg/kg/injection, schedule: Q01DX010 (ip), vehicle: saline
[6] = endpoint: survival time, mean or median, dose: 80.0 mg/kg/injection, schedule: Q01DX010 (ip), vehicle: saline
[7] = endpoint: survival time, mean or median, dose: 10.0 mg/kg/injection, schedule: Q01DX010 (ip), vehicle: saline
[8] = endpoint: survival time, mean or median, dose: 25.0 mg/kg/injection, schedule: Q01DX015 (ip), vehicle: carboxymethylcellulose (CMC)
[9] = endpoint: survival time, mean or median, dose: 100.0 mg/kg/injection, schedule: Q01DX015 (ip), vehicle: carboxymethylcellulose (CMC)

Measured: T/C

NC(C/[N+]([O-])=N/O)C(=O)O (configuration not stated)
inactive: endpoint: median survival time, dose: 12.5 mg/kg/injection, schedule: Q01DX009 (ip), vehicle: saline 113 % of control | endpoint: median survival time, dose: 25.0 mg/kg/injection, schedule: Q01DX009 (ip), vehicle: saline 117 % of control

CCN(CC)c1ccc2cc3ccc(=[N+](CC)CC)cc-3oc2c1
inactive: endpoint: survival time, mean or median, dose: 1.0 mg/kg/injection, schedule: Q01DX010 (ip), vehicle: saline 96 % of control

CC(=O)Nc1ccc2nc3ccc(NC(C)=O)cc3[n+](-c3ccccc3)c2c1
inactive: endpoint: survival time, mean or median, dose: 25.0 mg/kg/injection, schedule: Q01DX010 (ip), vehicle: saline 107 % of control | endpoint: survival time, mean or median, dose: 50.0 mg/kg/injection, schedule: Q01DX010 (ip), vehicle: saline 89 % of control | endpoint: survival time, mean or median, dose: 100.0 mg/kg/injection, schedule: Q01DX010 (ip), vehicle: saline 92 % of control

N=C(N)SCc1c2ccccc2c(CSC(=N)N)c2ccccc12
inactive: endpoint: survival time, mean or median, dose: 2.5 mg/kg/injection, schedule: Q01DX010 (ip), vehicle: saline 106 % of control and 121 % of control | [1] 113 % of control | [2] 113 % of control and 114 % of control

CCOC=Nc1c(N)ncnc1Cl
inactive: endpoint: survival time, mean or median, dose: 62.5 mg/kg/injection, schedule: Q01DX015 (ip), vehicle: olive oil, sesame oil, peanut oil 107 % of control | endpoint: survival time, mean or median, dose: 125.0 mg/kg/injection, schedule: Q01DX015 (ip), vehicle: olive oil, sesame oil, peanut oil 93 % of control | endpoint: survival time, mean or median, dose: 250.0 mg/kg/injection, schedule: Q01DX015 (ip), vehicle: olive oil, sesame oil, peanut oil 101 % of control | endpoint: survival time, mean or median, dose: 500.0 mg/kg/injection, schedule: Q01DX015 (ip), vehicle: olive oil, sesame oil, peanut oil 101 % of control

CCCCNc1ncnc2c1cnn2C
inactive: endpoint: survival time, mean or median, dose: 31.3 mg/kg/injection, schedule: Q01DX010 (ip), vehicle: saline 87 % of control and 95 % of control and 100 % of control | [3] 86 % of control and 97 % of control and 100 % of control | [4] 90 % of control

Nc1nc(=S)c2[nH]cnc2[nH]1
inactive: endpoint: survival time, mean or median, dose: 1.25 mg/kg/injection, schedule: Q01DX010 (ip), vehicle: other 120 % of control | endpoint: survival time, mean or median, dose: 5.0 mg/kg/injection, schedule: Q01DX010 (ip), vehicle: other 115 % of control | endpoint: survival time, mean or median, dose: 10.0 mg/kg/injection, schedule: Q01DX010 (ip), vehicle: other 110 % of control

CC(=O)N(C)C
inactive: [3] 86 % of control and 105 % of control and 121 % of control | [4] 95 % of control and 100 % of control and 112 % of control | endpoint: survival time, mean or median, dose: 250.0 mg/kg/injection, schedule: Q01DX010 (ip), vehicle: saline 95 % of control and 105 % of control | endpoint: survival time, mean or median, dose: 500.0 mg/kg/injection, schedule: Q01DX010 (ip), vehicle: saline 95 % of control and 100 % of control and 115 % of control

COc1cc([C@@H]2c3cc4c(cc3[C@H](O)[C@H]3COC(=O)[C@@H]23)OCO4)cc(OC)c1OC
inactive: endpoint: survival time, mean or median, dose: 10.0 mg/kg/injection, schedule: Q01DX015 (ip), vehicle: carboxymethylcellulose (CMC) 98 % of control | endpoint: survival time, mean or median, dose: 20.0 mg/kg/injection, schedule: Q01DX015 (ip), vehicle: carboxymethylcellulose (CMC) 119 % of control

OCC1OC(n2cnc3c(=S)nc[nH]c32)C(O)C1O (configuration not stated)
inactive: [2] 104 % of control and 112 % of control | [5] 100 % of control and 109 % of control and 112 % of control | [6] 105 % of control and 118 % of control and 121 % of control | endpoint: survival time, mean or median, dose: 160.0 mg/kg/injection, schedule: Q01DX010 (ip), vehicle: saline 93 % of control and 118 % of control

O=c1[nH]c(=O)n(C2CC(O)C(CO)O2)cc1F (configuration not stated)
inactive: [7] 103 % of control | [2] 100 % of control | [5] 114 % of control | [6] 96 % of control

C=CCSc1nc(N)nc2nc[nH]c12
inactive: endpoint: survival time, mean or median, dose: 16.0 mg/kg/injection, schedule: Q01DX015 (ip), vehicle: other 101 % of control | endpoint: survival time, mean or median, dose: 31.0 mg/kg/injection, schedule: Q01DX015 (ip), vehicle: other 100 % of control | endpoint: survival time, mean or median, dose: 62.5 mg/kg/injection, schedule: Q01DX015 (ip), vehicle: other 90 % of control

CN(N=O)C(=O)N[C@@H](C=O)[C@@H](O)[C@H](O)[C@H](O)CO
inactive: endpoint: survival time, mean or median, dose: 12.5 mg/kg/injection, schedule: Q01DX008 (im), vehicle: saline 124 % of control | endpoint: survival time, mean or median, dose: 12.5 mg/kg/injection, schedule: Q01DX008 (ip), vehicle: saline 116 % of control | endpoint: survival time, mean or median, dose: 12.5 mg/kg/injection, schedule: Q01DX008 (iv), vehicle: saline 97 % of control | endpoint: survival time, mean or median, dose: 12.5 mg/kg/injection, schedule: Q01DX008 (sc), vehicle: saline 116 % of control | endpoint: survival time, mean or median, dose: 25.0 mg/kg/injection, schedule: Q01DX008 (ip), vehicle: saline 115 % of control | endpoint: survival time, mean or median, dose: 25.0 mg/kg/injection, schedule: Q01DX008 (iv), vehicle: saline 106 % of control | endpoint: survival time, mean or median, dose: 25.0 mg/kg/injection, schedule: Q01DX008 (sc), vehicle: saline 124 % of control | endpoint: survival time, mean or median, dose: 50.0 mg/kg/injection, schedule: Q01DX008 (iv), vehicle: saline 107 % of control | endpoint: survival time, mean or median, dose: 100.0 mg/kg/injection, schedule: Q01DX008 (im), vehicle: saline 86 % of control | endpoint: survival time, mean or median, dose: 100.0 mg/kg/injection, schedule: Q01DX008 (ip), vehicle: saline 96 % of control | endpoint: survival time, mean or median, dose: 100.0 mg/kg/injection, schedule: Q01DX008 (iv), vehicle: saline 106 % of control | endpoint: survival time, mean or median, dose: 100.0 mg/kg/injection, schedule: Q01DX Z (oral), vehicle: saline 100 % of control | endpoint: survival time, mean or median, dose: 200.0 mg/kg/injection, schedule: Q01DX Z (oral), vehicle: saline 100 % of control | endpoint: survival time, mean or median, dose: 400.0 mg/kg/injection, schedule: Q01DX Z (oral), vehicle: saline 117 % of control | endpoint: survival time, mean or median, dose: 800.0 mg/kg/injection, schedule: Q01DX Z (oral), vehicle: saline 97 % of control

O=C(O)CC(NC(=O)CP(=O)(O)O)C(=O)O (configuration not stated)
inactive: endpoint: median survival time, dose: 62.2 mg/kg/injection, schedule: Q04DX003 (ip), vehicle: saline 101 % of control | endpoint: median survival time, dose: 104.0 mg/kg/injection, schedule: Q04DX003 (ip), vehicle: saline 114 % of control | endpoint: median survival time, dose: 173.0 mg/kg/injection, schedule: Q04DX003 (ip), vehicle: saline 103 % of control | endpoint: median survival time, dose: 288.0 mg/kg/injection, schedule: Q04DX003 (ip), vehicle: saline 108 % of control | endpoint: median survival time, dose: 480.0 mg/kg/injection, schedule: Q04DX003 (ip), vehicle: saline 111 % of control

CN(C)c1ccc(/C=C/c2ccnc3ccccc23)cc1
inactive: [1] 104 % of control and 118 % of control | [7] 86 % of control and 109 % of control | [2] 86 % of control and 104 % of control | [5] 95 % of control and 100 % of control

Nc1nc(SCc2ccccn2)c2[nH]cnc2n1
inactive: endpoint: survival time, mean or median, dose: 12.5 mg/kg/injection, schedule: Q01DX015 (ip), vehicle: carboxymethylcellulose (CMC) 98 % of control | [8] 96 % of control | [9] 104 % of control

CC(=O)OCC1OC(n2cnc3c(=S)nc[nH]c32)C(OC(C)=O)C1OC(C)=O (configuration not stated)
inactive: [8] 101 % of control | endpoint: survival time, mean or median, dose: 50.0 mg/kg/injection, schedule: Q01DX015 (ip), vehicle: carboxymethylcellulose (CMC) 109 % of control | [9] 104 % of control

CCCNc1ncnc2[nH]ncc12
inactive: endpoint: survival time, mean or median, dose: 3.13 mg/kg/injection, schedule: Q01DX010 (ip), vehicle: saline 104 % of control (2×) and 105 % of control | endpoint: survival time, mean or median, dose: 6.25 mg/kg/injection, schedule: Q01DX010 (ip), vehicle: saline 105 % of control and 106 % of control | endpoint: survival time, mean or median, dose: 12.5 mg/kg/injection, schedule: Q01DX010 (ip), vehicle: saline 90 % of control and 100 % of control and 114 % of control

COc1ccc(CSc2ncnc3nc[nH]c23)cc1
inactive: endpoint: survival time, mean or median, dose: 62.5 mg/kg/injection, schedule: Q01DX015 (ip), vehicle: carboxymethylcellulose (CMC) 95 % of control | endpoint: survival time, mean or median, dose: 125.0 mg/kg/injection, schedule: Q01DX015 (ip), vehicle: carboxymethylcellulose (CMC) 92 % of control | endpoint: survival time, mean or median, dose: 250.0 mg/kg/injection, schedule: Q01DX015 (ip), vehicle: carboxymethylcellulose (CMC) 87 % of control
